From paper PMC11359809, “Probing the molecular basis for signal transduction through the Zinc-Activated Channel (ZAC)” (Biochemical pharmacology, 2021)

Assays:
[1] = target: T1, ZAC^E136A/H139A/D143A/H144A (Homo sapiens, UniProt Q401N2, A152T/D167A/E160A/H163A/H168A); assay: TEVC in oocytes, Cluster 2 quadruple mutant; type: cell-based; settings: Zn^2+ 10 mM; H^+ pH 4.0; data not shown
T1 construct: expressed in transfected cells; host or cells: Xenopus oocytes injected with cRNA (pUNIV vector)
Description: (§1) The recordings were performed at room temperature.
(§2) Analysis of the data from the TEVC recordings were performed using Clampfit software version 10.5 (Molecular Devices, Crawley, UK) and GraphPad Prism version 7.0c (GraphPad Software, La Jolla, CA). Unless otherwise stated, the inward currents induced by agonists in oocytes were normalized to the maximal response elicited by a specific agonist (agonist Imax) on each oocyte. Concentration-response and concentration-inhibition curves were fitted in GraphPad Prism by nonlinear regression using the equation for sigmoidal dose-response with variable slope. Each data point represents the mean ± S.E.M. value of recordings performed on at least five oocytes in total from at least two different batches. […] The null hypothesis was rejected at P < 0.05, and the differences between the means were analyzed by Tukey’s multiple comparisons test.
(§3) The putative involvement of candidate residues in Clusters 1, 2, 3 and 4 in Zn^2+ binding to ZAC was investigated in by an elaborate alanine mutagenesis scanning. […] The determined IpH 4.0 value was used in part as a control and in part to enable the distinction of ZAC mutants non-responsive to Zn^2+ due to elimination of their ability to bind the metal ion from those where the mutation had eliminated cell surface expression and/or disrupted overall functionality of the receptor complex. […]

[2] = target: T2, ZAC^H82A (Homo sapiens, UniProt Q401N2, A152T/H106A); assay: TEVC in oocytes, ZAC H82A mutant; type: cell-based
T2 construct: expressed in transfected cells; host or cells: Xenopus oocytes injected with cRNA (pUNIV vector)
Description: as §1, §2, §3

[3] = test system: ZAC/m5-HT3A; assay: TEVC in oocytes expressing ZAC/m5-HT3A chimera; type: cell-based, mouse/human; settings: 10 mM Zn^2+; n = 5
Description: as §1
(§4) Analysis of the data from the TEVC recordings were performed using Clampfit software version 10.5 (Molecular Devices, Crawley, UK) and GraphPad Prism version 7.0c (GraphPad Software, La Jolla, CA). Unless otherwise stated, the inward currents induced by agonists in oocytes were normalized to the maximal response elicited by a specific agonist (agonist Imax) on each oocyte. Concentration-response and concentration-inhibition curves were fitted in GraphPad Prism by nonlinear regression using the equation for sigmoidal dose-response with variable slope. Each data point represents the mean ± S.E.M. value of recordings performed on at least five oocytes in total from at least two different batches. For the data where statistical analysis was performed, a one-way ANOVA was used. The null hypothesis was rejected at P < 0.05, and the differences between the means were analyzed by Tukey’s multiple comparisons test.
(§5) Initially, we constructed four chimeric subunits fusing the ZAC ECD or TMD-ICD with the complementary domains from either the m5-HT3A or the hα1 GlyR subunit: ZAC/m5-HT3A, m5-HT3A/ZAC, ZAC/hα1-Gly and hα1-Gly/ZAC (Fig. 1A). […] (Fig. 1A).

[4] = test system: ZAC^FPM/hα1-Gly; assay: TEVC in oocytes, Cys-loop modified chimera ZAC^FPM/hα1-Gly; type: cell-based, human; settings: data not shown
Description: as §1
To probe the effects of exchanges of regions involved in the ECD/TMD cross-talk between the two CLRs fused in a chimera on its functionality, we constructed 12 additional chimeras, three for each of the four original chimeras (Fig. 1A). Inspired by the similar modifications that have been introduced in a functional GLIC/hα1-Gly chimera, we swapped one or both of two specific regions: the three-residue FPX (Phe-Pro-X) motif in the Cys-loop of the ECD (FPR, FPF and […] in ZAC, m5-HT3A and hα1 GlyR, respectively), which is known to protude into proximity of the M2-M3 linker during the ECD/TMD cross-talk, and the extracellular C-terminus of the TMD, which differs substantially in both amino acid sequence and length between ZAC and the two classical CLRs combined with it in the chimeras (Fig. 4B). […] In light of this, it was not surprising that the four chimeras comprising exchanges of both the FPX motif and the C-terminus also were non-functional (data not shown).

[5] = target: T3, ZAC^E89A/D105A (Homo sapiens, UniProt Q401N2, A152T/D129A/E113A); assay: TEVC in oocytes, ZAC E89A/D105A mutant; type: cell-based
T3 construct: expressed in transfected cells; host or cells: Xenopus oocytes injected with cRNA (pUNIV vector)
Description: as §1, §2, §3

[6] = target: T4, ZAC^D105A (Homo sapiens, UniProt Q401N2, A152T/D129A); assay: TEVC in oocytes, ZAC D105A mutant; type: cell-based
T4 construct: expressed in transfected cells; host or cells: Xenopus oocytes (cRNA injection, pUNIV vector)
Description: as §1, §2, §3

[7] = target: T5, ZAC^L9′A (Homo sapiens, UniProt Q401N2, A152T/L270A); assay: TEVC in oocytes, ZAC L9′A mutant; type: cell-based; settings: agonist; n = 7
T5 construct: expressed in transfected cells; host or cells: Xenopus oocytes injected with cRNA (pUNIV vector)
T5 sequence (Q401N2 26-412 A152T/L270A): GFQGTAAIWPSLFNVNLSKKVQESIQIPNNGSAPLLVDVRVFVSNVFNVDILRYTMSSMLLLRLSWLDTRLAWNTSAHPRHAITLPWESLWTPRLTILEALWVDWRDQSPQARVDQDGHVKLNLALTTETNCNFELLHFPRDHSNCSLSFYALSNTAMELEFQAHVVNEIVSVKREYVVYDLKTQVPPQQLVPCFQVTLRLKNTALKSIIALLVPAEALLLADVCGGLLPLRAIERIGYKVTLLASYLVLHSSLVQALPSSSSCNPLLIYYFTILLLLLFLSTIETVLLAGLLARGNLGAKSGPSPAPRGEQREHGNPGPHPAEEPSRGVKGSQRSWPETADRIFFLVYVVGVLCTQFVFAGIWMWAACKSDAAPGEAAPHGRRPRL
Description: as §1, §4

[8] = target: T6, ZAC^E24A (Homo sapiens, UniProt Q401N2, A152T/E48A); assay: TEVC in oocytes, ZAC E24A mutant; type: cell-based; settings: agonist; n = 5
T6 construct: expressed in transfected cells; host or cells: Xenopus oocytes injected with cRNA (pUNIV vector)
Description: as §1, §2, §3

[9] = target: T7, ZAC^H144A (Homo sapiens, UniProt Q401N2, A152T/H168A); assay: TEVC in oocytes, ZAC H144A mutant; type: cell-based
T7 construct: expressed in transfected cells; host or cells: Xenopus oocytes injected with cRNA (pUNIV vector)
Description: as §1, §2, §3

[10] = test system: ZAC^H120F; assay: TEVC in oocytes, ZAC H120F mutant; type: cell-based, human; settings: agonist
Description: as §1, §2, §3

[11] = test system: hα1-Gly/ZAC; assay: TEVC in oocytes expressing hα1-Gly/ZAC chimera; type: cell-based, human; settings: 10 mM Zn^2+; outward current; n = 5
Description: as §1, §4, §5

T6 sequence (Q401N2 26-412 E48A/A152T): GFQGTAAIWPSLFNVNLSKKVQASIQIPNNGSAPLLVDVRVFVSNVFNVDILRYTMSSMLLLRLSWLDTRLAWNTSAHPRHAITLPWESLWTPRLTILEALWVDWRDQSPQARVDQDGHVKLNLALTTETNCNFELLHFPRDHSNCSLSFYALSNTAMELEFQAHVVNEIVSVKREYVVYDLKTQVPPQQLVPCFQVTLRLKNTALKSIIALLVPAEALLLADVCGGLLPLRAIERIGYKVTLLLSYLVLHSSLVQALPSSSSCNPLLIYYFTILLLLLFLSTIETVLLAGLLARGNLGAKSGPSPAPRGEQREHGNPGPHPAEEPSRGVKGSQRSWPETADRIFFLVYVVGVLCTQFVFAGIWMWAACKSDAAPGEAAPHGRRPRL
T4 sequence (Q401N2 26-412 D129A/A152T): as the sequence (Q401N2 26-412 E48A/A152T) above, with A23E, D104A counted along it
T3 sequence (Q401N2 26-412 E113A/D129A/A152T): as the sequence (Q401N2 26-412 E48A/A152T) above, with A23E, E88A, D104A counted along it
T7 sequence (Q401N2 26-412 A152T/H168A): as the sequence (Q401N2 26-412 E48A/A152T) above, with A23E, H143A counted along it
T2 sequence (Q401N2 26-412 H106A/A152T): as the sequence (Q401N2 26-412 E48A/A152T) above, with A23E, H81A counted along it
T1 sequence (Q401N2 26-412 A152T/E160A/H163A/D167A/H168A): as the sequence (Q401N2 26-412 E48A/A152T) above, with A23E, E135A, H138A, D142A, H143A counted along it

## [Cl-].[Cl-].[Zn+2] [Zn^2+, ZnCl2]
[1]
  agonist responsiveness: non-responsive
[2]
  agonist properties compared to WT ZAC: WT-like agonist properties
[3]
  I10 mM Zn2+ ± S.E.M.: −0.0038 ± 0.0009 μA
[4]
  concentration-response relationship compared to ZAC/hα1-Gly: not significantly different
[5]
  concentration-response relationship compared to WT ZAC: very similar to that at WT ZAC
[6]
  concentration-response relationship compared to WT ZAC: did not differ significantly
[7]
  EC50: 230 µM
  nH ± S.E.M. (Hill slope): 1.2 ± 0.2
  pEC50 ± S.E.M.: 3.64 ± 0.08
[8]
  EC50: 71 µM
  pEC50 ± S.E.M.: 4.15 ± 0.04
[9]
  functional properties as agonist compared to WT ZAC: not altered significantly
[10]
  fitted EC50 relative to WT ZAC (higher): ~ 3 fold
[11]
  I10 mM Zn2+ ± S.E.M.: 0.0298 ± 0.0058 μA
